Measurements taken from US9233989B2, “Sila analogs of oxazolidinone derivatives and synthesis thereof” (Council of Scientific & Industrial Research, priority 2011, dated 2016).
Values after ≈ are worked out from the molar mass of the structure shown.

Experiments:
E.faecalis ATCC 29212 = assay: MIC by microbroth dilution method; assay type: cell-based
E.faecalis SP 346 VRE = assay: MIC by microbroth dilution method; assay type: cell-based
E.faecium 134 VRE = assay: MIC by microbroth dilution method; assay type: cell-based
S.aureus2 (PVL + ve) = assay type: cell-based, S. aureus
[1] = test system: S.aureus ATCC 13709 Smith; assay: MIC by microbroth dilution method; assay type: cell-based
[2] = test system: S.aureus ATCC Newman 25904; assay: MIC by microbroth dilution method; assay type: cell-based
MRSA ATCC BAA 39 = assay: MIC by microbroth dilution method; assay type: cell-based, S. aureus
MRSA 0-2657 = assay: MIC by microbroth dilution method; assay type: cell-based, S. aureus
S.epidermidis ATCC 14990 = assay: MIC by microbroth dilution method; assay type: cell-based
S.aureus ATCC 29213 = assay: MIC by microbroth dilution method; assay type: cell-based
E.faecium 06076 VRE = assay: MIC by microbroth dilution method; assay type: cell-based
E.faecium ATCC 3567 = assay: MIC by microbroth dilution method; assay type: cell-based
MRSE ATCC 35983 = assay: MIC by microbroth dilution method; assay type: cell-based, S. epidermidis
[3] = test system: S.aureus ATCC 49775 PVL + ve; assay type: cell-based
MRSE ATCC 35984 = assay: MIC by microbroth dilution method; assay type: cell-based, S. epidermidis
S.epidermis St 358 = assay: MIC by microbroth dilution method; assay type: cell-based, S. epidermidis
MRSA DB 00026 = assay: MIC by microbroth dilution method; assay type: cell-based, S. aureus
S.aureus DB00026 = assay: MIC by microbroth dilution method; assay type: cell-based
E.faecium 6A VRE = assay: MIC by microbroth dilution method; assay type: cell-based
E.faecalis ATCC 19433 = assay: MIC by microbroth dilution method; assay type: cell-based
E.coli 7632 = assay: MIC by microbroth dilution method; assay type: cell-based
E.faecium ATCC 35667 = assay: MIC by microbroth dilution method; assay type: cell-based
S.epidermidis ATCC 12228 = assay: MIC by microbroth dilution method; assay type: cell-based
MRSA 252 BAA 1720 = assay: MIC by microbroth dilution method; assay type: cell-based, S. aureus
[4] = test system: Mycobacterium tuberculosis H37Rv; assay: Anti-TB activity, colorimetric resazurin microtiter assay; assay type: cell-based; settings: for MIC: Mycobacterium tuberculosis, H37RV, read-out: MIC, Minimum Inhibitory Concentration (90%)
[5] = test system: S.aureus ATCC 700699 Mu50; assay: MIC by microbroth dilution method; assay type: cell-based
E.faecium ATCC 49224 = assay: MIC by microbroth dilution method; assay type: cell-based
[6] = test system: E.faecalis ATCC 51299(VRE&HLAR); assay: MIC by microbroth dilution method; assay type: cell-based
MRSA ATCC 43300 = assay: MIC by microbroth dilution method; assay type: cell-based, S. aureus
MRSA 562 = assay: MIC by microbroth dilution method; assay type: cell-based, S. aureus
E.faecium ATCC 19434 = assay: MIC by microbroth dilution method; assay type: cell-based
[7] = test system: S.aureus 13709 LNZ mutant; assay type: cell-based

SMILES | MIC (E.faecalis ATCC 29212) | MIC (E.faecalis SP 346 VRE) | MIC (E.faecium 134 VRE) | MIC (S.aureus2 (PVL + ve)) | MIC [1] | MIC [2] | MIC (MRSA ATCC BAA 39) | MIC (MRSA 0-2657) | MIC (S.epidermidis ATCC 14990) | MIC (S.aureus ATCC 29213) | MIC (E.faecium 06076 VRE) | MIC (E.faecium ATCC 3567) | MIC (MRSE ATCC 35983) | MIC [3] | MIC (MRSE ATCC 35984) | MIC (S.epidermis St 358) | MIC (MRSA DB 00026) | MIC (S.aureus DB00026) | MIC (E.faecium 6A VRE) | MIC (E.faecalis ATCC 19433) | further results
C[Si]1(C)CCN(c2ccc(N3C[C@H](CN)OC3=O)cc2F)CC1 [NDS-10057, (S)-5-(aminomethyl)-3-(4-(4,4-dimethyl-1,4-azasilinan-1-yl)-3-fluorophenyl)oxazolidin-2-one] | > 32 µg/mL | > 32 µg/mL | 32 µg/mL (≈ 94.8 µM) | > 32 µg/mL | > 32 µg/mL | > 32 µg/mL | > 32 µg/mL | > 32 µg/mL | > 32 µg/mL | > 32 µg/mL | > 32 µg/mL | > 32 µg/mL | > 32 µg/mL | > 32 µg/mL | 32 µg/mL (≈ 94.8 µM) | > 32 µg/mL | > 32 µg/mL | > 32 µg/mL | > 32 µg/mL | 32 µg/mL (≈ 94.8 µM) | MIC (E.coli 7632): 32 µg/mL (≈ 94.8 µM); MIC (E.faecium ATCC 35667): 32 µg/mL (≈ 94.8 µM); MIC (S.epidermidis ATCC 12228): > 32 µg/mL; MIC (MRSA 252 BAA 1720): > 32 µg/mL; MIC [4]: 25 µg/mL (≈ 74.1 µM); MIC [5]: > 32 µg/mL; MIC (E.faecium ATCC 49224): 32 µg/mL (≈ 94.8 µM); MIC [6]: 16 µg/mL (≈ 47.4 µM); MIC (MRSA ATCC 43300): > 32 µg/mL; MIC (MRSA 562): > 32 µg/mL; MIC (E.faecium ATCC 19434): 32 µg/mL (≈ 94.8 µM); MIC [7]: > 32 µg/mL
C[Si]1(C)CCN(c2c(F)cc(N3C[C@H](Cn4ccnn4)OC3=O)cc2F)CC1 [NDS-10058, (R)-5-((1H-1,2,3-triazol-1-yl)methyl)-3-(4-(4,4-dimethyl-1,4-azasilinan-1-yl)-3,5-difluorophenyl)oxazolidin-2-one] | 32 µg/mL (≈ 78.5 µM) | 32 µg/mL (≈ 78.5 µM) | 4 µg/mL (≈ 9.82 µM) | 32 µg/mL (≈ 78.5 µM) | > 32 µg/mL | 32 µg/mL (≈ 78.5 µM) | > 32 µg/mL | > 32 µg/mL | > 32 µg/mL | > 32 µg/mL | 32 µg/mL (≈ 78.5 µM) | > 32 µg/mL | 16 µg/mL (≈ 39.3 µM) | 32 µg/mL (≈ 78.5 µM) | 32 µg/mL (≈ 78.5 µM) | 32 µg/mL (≈ 78.5 µM) | > 32 µg/mL | > 32 µg/mL | 16 µg/mL (≈ 39.3 µM) | 32 µg/mL (≈ 78.5 µM) | MIC (E.coli 7632): 16 µg/mL (≈ 39.3 µM); MIC (E.faecium ATCC 35667): > 32 µg/mL; MIC (S.epidermidis ATCC 12228): > 32 µg/mL; MIC (MRSA 252 BAA 1720): > 32 µg/mL; anti-tubercular activity (in words) ([4]; Mycobacterium tuberculosis H37Rv): good anti-tubercular activity; MIC [4]: 12.5 µg/mL (≈ 30.7 µM); MIC [5]: > 32 µg/mL; MIC (E.faecium ATCC 49224): > 32 µg/mL; MIC [6]: 32 µg/mL (≈ 78.5 µM); MIC (MRSA ATCC 43300): > 32 µg/mL; MIC (MRSA 562): > 32 µg/mL; MIC (E.faecium ATCC 19434): 32 µg/mL (≈ 78.5 µM); MIC [7]: 32 µg/mL (≈ 78.5 µM)
COC(=O)NC[C@H]1CN(c2ccc(N3CC[Si](C)(C)CC3)c(F)c2)C(=O)O1 [NDS-10061, (S)-methyl((3-(4-(4,4-dimethyl-1,4-azasilinan-1-yl)-3-fluorophenyl)-2-oxooxazolidin-5-yl)methyl)carbamate] | 8 µg/mL (≈ 20.2 µM) | 16 µg/mL (≈ 40.5 µM) | 16 µg/mL (≈ 40.5 µM) | 16 µg/mL (≈ 40.5 µM) | 8 µg/mL (≈ 20.2 µM) | 16 µg/mL (≈ 40.5 µM) | 16 µg/mL (≈ 40.5 µM) | 16 µg/mL (≈ 40.5 µM) | 8 µg/mL (≈ 20.2 µM) | 16 µg/mL (≈ 40.5 µM) | 32 µg/mL (≈ 80.9 µM) | 32 µg/mL (≈ 80.9 µM) | 16 µg/mL (≈ 40.5 µM) | 16 µg/mL (≈ 40.5 µM) | 8 µg/mL (≈ 20.2 µM) | 32 µg/mL (≈ 80.9 µM) | 16 µg/mL (≈ 40.5 µM) | 8 µg/mL (≈ 20.2 µM) | 32 µg/mL (≈ 80.9 µM) | 16 µg/mL (≈ 40.5 µM) | MIC (E.coli 7632): 8 µg/mL (≈ 20.2 µM); MIC (E.faecium ATCC 35667): 16 µg/mL (≈ 40.5 µM); MIC (S.epidermidis ATCC 12228): > 32 µg/mL; MIC (MRSA 252 BAA 1720): 16 µg/mL (≈ 40.5 µM); MIC [4]: 25 µg/mL (≈ 63.2 µM); MIC [5]: 32 µg/mL (≈ 80.9 µM); MIC (E.faecium ATCC 49224): 16 µg/mL (≈ 40.5 µM); MIC [6]: 32 µg/mL (≈ 80.9 µM); MIC (MRSA ATCC 43300): > 32 µg/mL; MIC (MRSA 562): 16 µg/mL (≈ 40.5 µM); MIC (E.faecium ATCC 19434): 32 µg/mL (≈ 80.9 µM); MIC [7]: 32 µg/mL (≈ 80.9 µM)
CC(=O)NC[C@H]1CN(c2cc(F)c(N3CC[Si](C)(C)CC3)c(F)c2)C(=O)O1 [NDS-10028, (S)—N-((3-(4-(4,4-dimethyl-1,4-azasilinan-1-yl)-3,5-difluorophenyl)-2-oxooxazolidin-5-yl)methyl)acetamide] | 8 µg/mL (≈ 20.1 µM) | 8 µg/mL (≈ 20.1 µM) | 8 µg/mL (≈ 20.1 µM) | > 32 µg/mL | 8 µg/mL (≈ 20.1 µM) | > 32 µg/mL | 8 µg/mL (≈ 20.1 µM) | 8 µg/mL (≈ 20.1 µM) | 4 µg/mL (≈ 10.1 µM) | > 16 µg/mL | 8 µg/mL (≈ 20.1 µM) | 16 µg/mL (≈ 40.3 µM) | 4 µg/mL (≈ 10.1 µM) | 16 µg/mL (≈ 40.3 µM) | 8 µg/mL (≈ 20.1 µM) | 8 µg/mL (≈ 20.1 µM) | 8 µg/mL (≈ 20.1 µM) | > 32 µg/mL | 4 µg/mL (≈ 10.1 µM) | 16 µg/mL (≈ 40.3 µM) | MIC (E.coli 7632): > 32 µg/mL; MIC (E.faecium ATCC 35667): 8 µg/mL (≈ 20.1 µM); MIC (S.epidermidis ATCC 12228): 4 µg/mL (≈ 10.1 µM); MIC (MRSA 252 BAA 1720): > 32 µg/mL; MIC [4]: > 50 µg/mL; MIC [5]: 8 µg/mL (≈ 20.1 µM); MIC (E.faecium ATCC 49224): 8 µg/mL (≈ 20.1 µM); MIC [6]: 8 µg/mL (≈ 20.1 µM); MIC (MRSA ATCC 43300): > 32 µg/mL; MIC (MRSA 562): 8 µg/mL (≈ 20.1 µM); MIC (E.faecium ATCC 19434): 8 µg/mL (≈ 20.1 µM); MIC [7]: > 16 µg/mL
CCC(=O)NC[C@H]1CN(c2cc(F)c(N3CC[Si](C)(C)CC3)c(F)c2)C(=O)O1 [NDS-10056, (S)—N-((3-(4-(4,4-dimethyl-1,4-azasilinan-1-yl)-3,5-difluorophenyl)-2-oxooxazolidin-5-yl)methyl)propionamide] | 32 µg/mL (≈ 77.8 µM) | 16 µg/mL (≈ 38.9 µM) | 32 µg/mL (≈ 77.8 µM) | 8 µg/mL (≈ 19.4 µM) | > 32 µg/mL | 16 µg/mL (≈ 38.9 µM) | 32 µg/mL (≈ 77.8 µM) | 16 µg/mL (≈ 38.9 µM) | 16 µg/mL (≈ 38.9 µM) | > 32 µg/mL | > 32 µg/mL | 32 µg/mL (≈ 77.8 µM) | 32 µg/mL (≈ 77.8 µM) | 32 µg/mL (≈ 77.8 µM) | 32 µg/mL (≈ 77.8 µM) | 32 µg/mL (≈ 77.8 µM) | 32 µg/mL (≈ 77.8 µM) | > 32 µg/mL | 8 µg/mL (≈ 19.4 µM) | 32 µg/mL (≈ 77.8 µM) | MIC (E.coli 7632): > 32 µg/mL; MIC (E.faecium ATCC 35667): 32 µg/mL (≈ 77.8 µM); MIC (S.epidermidis ATCC 12228): 8 µg/mL (≈ 19.4 µM); MIC (MRSA 252 BAA 1720): 32 µg/mL (≈ 77.8 µM); MIC [4]: 50 µg/mL (≈ 121 µM); MIC [5]: 16 µg/mL (≈ 38.9 µM); MIC (E.faecium ATCC 49224): 32 µg/mL (≈ 77.8 µM); MIC [6]: 8 µg/mL (≈ 19.4 µM); MIC (MRSA ATCC 43300): 16 µg/mL (≈ 38.9 µM); MIC (MRSA 562): 8 µg/mL (≈ 19.4 µM); MIC (E.faecium ATCC 19434): 32 µg/mL (≈ 77.8 µM); MIC [7]: > 32 µg/mL
